# Laboratory results: PMC5338256, “D-form KLKLLLLLKLK-NH2 peptide exerts higher antimicrobial properties than its L-form counterpart via an association with bacterial cell wall components” (Scientific Reports, 2017)
# Read-outs that look alike come from different tables or passages of the source. Non-standard residues stand in square brackets, D forms with d. Residues, ends and D or L forms follow the SMILES beside them. No end group written: not given here.
# Experiments:
# S. aureus [1] = assay type: cell-based, Staphylococcus aureus (NBRC100910)
# Procedure: (§1) S. aureus (NBRC100910), E. coli W3110 (NBRC12713), E. hirae (NBRC3181), C. albicans (NBRC1385), and S. Typhimurium 14028s (ATCC14028)[2] were used in this study. S. aureus, E. coli, and S. Typhimurium were grown at 37 °C with aeration in Muller-Hinton II medium (BD Biosciences). E. hirae was grown at 37 °C in LB medium (Nacalai Tesque, Inc.) containing 0.5% glucose (w/v). C. albicans was grown at room temperature with aeration in YM medium (BD Biosciences). All experiments were conducted using bacterial cells and C. albicans in the logarithmic-phase of growth.
# (§2) Bacterial suspensions in Muller-Hinton II medium were adjusted to an optical density of 550 nm (OD550) = 0.0011. C. albicans suspensions in YM medium were adjusted to OD650 = 0.033. Peptides were serially diluted in 10 mM phosphate buffer (pH 6.0) containing 130 mM sodium chloride, 0.2% bovine serum albumin, and 2.56% dimethyl sulfoxide. The peptide solution (100 μl) was mixed with 100 μl of bacteria or C. albicans suspensions. Bacterial cultures were incubated for one day at 37 °C. C. albicans cultures were incubated for two days at room temperature. Cell growth was monitored optically and the MIC was determined.
# S. aureus [2] = assay: Inhibition of antimicrobial activity by bacterial cell wall components; assay type: cell-based, Staphylococcus aureus; conditions: Kn2–7 6.25 μg/ml, Mastoparan M 8 μg/ml, 10 min
# Procedure: (§3) Bacteria and C. albicans were suspended in growth medium. Peptides suspended in dimethyl sulfoxide were serially diluted in 10 mM phosphate buffer (pH 6.0) containing 130 mM sodium chloride, 0.2% bovine serum albumin as described previously. In order to examine the effects of bovine serum albumin on the assay, 10 mM phosphate buffer (pH 6.0) containing 130 mM sodium chloride, was used for the dilution of peptides. Peptide solution (500 μl) was added to 500 μl of bacteria suspensions and then the mixture was incubated at 37 °C for 10 min. In order to examine the effects of culture medium components on the assay, bacteria suspension was prepared with 10 mM phosphate buffer (pH 6.0) containing 130 mM sodium chloride. Alternatively, 500 μl of peptide solution was added to 500 μl of C. albicans suspensions and the mixture was incubated at room temperature for 10 min. The inhibitory effects of the bacterial components were analyzed by incubating 450 μl of S. aureus suspension with 500 μl of peptide solution plus 50 μl of inhibitor samples at 37 °C for 10 min. Then, the peptide/bacteria suspensions were diluted and plated onto LB agar, LB agar containing 0.5% glucose, or YM agar. After cultivation of the plates, colony forming units (CFU) in the peptide/bacteria suspension were calculated based on the average of triplicate plates.
# Peptidoglycan (120 μg) prepared from S. aureus was added to 1 mg/ml of lysozyme in phosphate buffered saline (150 μl)[33]. Peptidoglycan without lysozyme and lysozyme without peptidoglycan were also prepared as controls. Samples were incubated overnight at 37 °C, and then incubated at 100 °C for 15 min to inactivate lysozyme. For heat-inactivation of peptidoglycan, 600 μg of peptidoglycan suspended in water (300 μl) was incubated at 100 °C for 15 min. The samples were sonicated for 10 sec at setting 1 using a Branson sonifier model S-150D. These samples were used as inhibitor samples for antimicrobial activity assays.
# S. aureus [3] = assay: Assay for membrane permeability (ethidium influx); assay type: cell-based, Staphylococcus aureus; conditions: 20 μg/ml peptide, fluorescence for 180 sec, 10 mM phosphate buffer pH 6.0, 130 mM NaCl, 0.2% BSA
# Procedure: To examine membrane permeability, ethidium influx rates were examined as previously described. S. aureus suspension cultures were adjusted to an OD600 of 0.4 in 10 mM phosphate buffer (pH 6.0) containing 130 mM sodium chloride and 0.2% bovine serum albumin. Then, peptide in dimethyl sulfoxide (8 μl) or dimethyl sulfoxide alone (8 μl) was added to 2 ml of S. aureus suspensions. At 30 sec after the addition of peptide, ethidium bromide was added to a final concentration of 5 μg/ml, and fluorescence of the ethidium-nucleic acid complex was monitored using a RF-5300PC spectrofluorometer (Shimadzu). Excitation and emission wavelengths were 545 nm with 5 nm slits and 600 nm with 10 nm slits, respectively.
# S. aureus [4] = assay: Assay for antimicrobial activity (10 min exposure, CFU); assay type: cell-based, Staphylococcus aureus (NBRC100910); conditions: 10 min at 37 °C, standard assay with culture medium and 0.2% BSA, triplicate plates
# Procedure: as §1, §3
# S. aureus [5] = assay: Peptide degradation in the S. aureus assay mixture (SDS-PAGE, Ruby stain); assay type: in vitro ADME, Staphylococcus aureus; conditions: 15 μg/ml peptide with S. aureus, 10 min at 37 °C, antimicrobial assay mixture, Ruby protein gel stain
# C. albicans = assay type: cell-based, Candida albicans (NBRC1385)
# Procedure: as §1, §2
# E. coli = assay type: cell-based, Escherichia coli W3110 (NBRC12713); conditions: pH 6
# Procedure: as §1, §2
# Gram-positive bacteria = conditions: cited from earlier work
# From the text: Sapecin B is an antimicrobial peptide that was originally isolated from the culture medium of an embryonic cell line, NIH-Sape-4, derived from Sarcophaga peregrine (flesh fly). […] Two other related proteins, sapecin and sapecin C, were also isolated from culture medium of NIH-Sape-4[13][14][15]. Sapecin B has significant sequence similarity to a scorpion venom toxin, charybdotoxin[13][16]. Structural comparison of sapecin B and charybdotoxin identified the undecapeptide RSLCLLHCRLK-NH2, which corresponds to amino acid residues 7 to 1 ...
# [6] = S. aureus, Muller-Hinton II medium mixed 1:1 with peptide in 10 mM phosphate buffer pH 6.0, 130 mM NaCl, 0.2% BSA, 2.56% DMSO, one day at 37 °C, growth monitored optically
compound,measurement,setting,value
"CC[C@@H](C)[C@@H](NC(=O)[C@H](N)Cc1ccccc1)C(=O)N[C@H](CCCCN)C(=O)N[C@H](CCCNC(=N)N)C(=O)N[C@@H](C(=O)N[C@H](C)C(=O)N[C@H](CCCNC(=N)N)C(=O)N[C@H](CC(C)C)C(=O)N[C@H](CC(C)C)C(=O)N[C@H](CCCNC(=N)N)C(=O)N[C@H](CCCCN)C(=O)N[C@@H](C(=O)N[C@H](Cc1ccccc1)C(N)=O)[C@H](C)CC)[C@H](C)CC [D-form FIKRIARLLRKIF-NH2, reference compound] (H-[dF][dI][dK][dR][dI][dA][dR][dL][dL][dR][dK][dI][dF]-NH2; N-terminus assumed)",MIC,S. aureus [1]; [6],4 µg/mL
same,inhibitory effect of S. aureus peptidoglycan on the antimicrobial activity,S. aureus [2],significant inhibitory effects
"CC[C@@H](C)[C@@H](NC(=O)CNC(=O)[C@@H](CO)NC(=O)[C@@H](CC(C)C)NC(=O)[C@H](NC(=O)[C@@H](CCCNC(=N)N)NC(=O)CNC(=O)[C@H](NC(=O)[C@@H](CC(C)C)NC(=O)[C@H]1CCCN1C(=O)[C@@H](CC(C)C)NC(=O)[C@H](N)Cc1ccccc1)[C@H](C)CC)C(C)C)C(=O)N[C@H](CC(C)C)C(N)=O [D-form FLPLIGRVLSGIL-NH2, reference compound] (H-[dF][dL][dP][dL][dI]G[dR][dV][dL][dS]G[dI][dL]-NH2; N-terminus assumed)",MIC,S. aureus [1]; [6],8 µg/mL
"CC[C@@H](C)[C@@H](N)C(=O)N[C@H](CC(N)=O)C(=O)N[C@H](CC(C)C)C(=O)N[C@H](CCCCN)C(=O)N[C@H](C)C(=O)N[C@@H](C(=O)N[C@H](C)C(=O)N[C@H](C)C(=O)N[C@H](CC(C)C)C(=O)N[C@H](C)C(=O)N[C@H](CCCCN)C(=O)N[C@H](CCCCN)C(=O)N[C@H](CC(C)C)C(=O)N[C@H](CC(C)C)C(N)=O)[C@H](C)CC [D-form INLKAIAALAKKLL-NH2, reference compound] (H-[dI][dN][dL][dK][dA][dI][dA][dA][dL][dA][dK][dK][dL][dL]-NH2)",ethidium bromide influx rate,S. aureus [3],increased ethidium bromide influx rates to a similar extent
same,MIC,S. aureus [1]; [6],16 µg/mL
same,inhibitory effect of S. aureus peptidoglycan on the antimicrobial activity,S. aureus [2],weak inhibitory effects
CC(C)C[C@@H](NC(=O)[C@H](N)CCCCN)C(=O)N[C@H](CCCCN)C(=O)N[C@H](CC(C)C)C(=O)N[C@H](CC(C)C)C(=O)N[C@H](CC(C)C)C(=O)N[C@H](CCCCN)C(=O)N[C@H](CC(C)C)C(=O)N[C@H](CCCCN)C(N)=O [D-form KLKLLLKLK-NH2] (H-[dK][dL][dK][dL][dL][dL][dK][dL][dK]-NH2; N-terminus assumed),fold by which the MIC of the D-form is lower than that of the L-form,S. aureus [1]; S. aureus,more than 32 fold
same,MIC,S. aureus [1]; [6],4 µg/mL
same,"antimicrobial activity (CFU), D-form compared with L-form",S. aureus [4],higher
"FIKRIARLLRKIF-NH2 [L-form FIKRIARLLRKIF-NH2, reference compound]",MIC,S. aureus [1]; [6],4 µg/mL
"FLPLIGRVLSGIL-NH2 [L-form FLPLIGRVLSGIL-NH2, reference compound]",MIC,S. aureus [1]; [6],8 µg/mL
"INLKAIAALAKKLL-NH2 [L-form INLKAIAALAKKLL-NH2, reference compound]",MIC,S. aureus [1]; [6],16 µg/mL
KLKLLLKLK-NH2 [L-form KLKLLLKLK-NH2],MIC,S. aureus [1]; [6],>128 µg/mL
KLKLLLLLKLK-NH2 [L-form KLKLLLLLKLK-NH2],specific degradation of the peptide,S. aureus [5],specific degradation of the L-form peptide was not observed
same,MIC,S. aureus [1]; pH 6,16 µg/mL
same,MIC,C. albicans,64 µg/mL
same,MIC,E. coli,16 µg/mL
"RSLCLLHCRLK-NH2 [undecapeptide, amino acid residues 7 to 17 of sapecin B with C-terminal amidation]",antimicrobial activity,Gram-positive bacteria,significant antimicrobial activity
